Experimental data as given in US20080125427A1, “Novel Inhibitors of Rho-Kinases” (SMITHKLINE BEECHAM CORPORATION, priority 2004, published 2008).

Biological target: T1, human recombinant ROCK1 kinase domain (amino acid 2-543) (Homo sapiens, UniProt Q13464)
T1 construct: human recombinant ROCK1 kinase domain (amino acid 2-543); His-tag; made in house; host or cells: Sf9 insect cells
Experiment: ROCK Kinase Assay (SPA, P33 incorporation into peptide substrate)
Type: biochemical
Conditions: 1 nM hROCK1, 1 uM ATP; eleven point dilution range, 50 uM to 0.8 nM or 10 uM to 0.8 nM (Example 98: 10 uM to 0.8 nM)
Description: ROCK inhibitor activity was determined using human recombinant ROCK1 kinase domain (amino acid 2-543) expressed in Sf9 cells (see WO9967283). The enzyme was purified using His-tag NTA column and Source15 HPLC chromatography. The assay of Rock-1 activity involved incubation with peptide substrate and ATP^33, the subsequent incorporation of P^33 into the peptide was quantified by Scintillation Proximity Assay (SPA—Amersham Pharmacia).
For IC50 determination, test compounds were typically dissolved at 10 mM in 100% DMSO, with subsequent serial dilution in 100% DMSO. Compounds were typically assayed over an eleven point dilution range with a concentration in the assay of 50 uM to 0.8 nM, in 3-fold dilutions. IC50 values were calculated by bespoke curve fitting software and then converted to pIC50. In some cases, compounds were assayed over an eleven point dilution range with a concentration in the assay of 10 uM to 0.8 nM, in 3-fold dilutions. […]
Assays were performed in opaque, white walled, 384 well plates, in a total assay volume of 20 ul. […] P^33 incorporation was quantified by scintillation counting in a Packard TopCount. When the reaction was terminated by addition of a 10 ul solution, P33 incorporation was quantified by luminescence detection using a Perkin-Elmer Viewlux ultraHTS microplate imager.

T1 sequence (Q13464 2-543): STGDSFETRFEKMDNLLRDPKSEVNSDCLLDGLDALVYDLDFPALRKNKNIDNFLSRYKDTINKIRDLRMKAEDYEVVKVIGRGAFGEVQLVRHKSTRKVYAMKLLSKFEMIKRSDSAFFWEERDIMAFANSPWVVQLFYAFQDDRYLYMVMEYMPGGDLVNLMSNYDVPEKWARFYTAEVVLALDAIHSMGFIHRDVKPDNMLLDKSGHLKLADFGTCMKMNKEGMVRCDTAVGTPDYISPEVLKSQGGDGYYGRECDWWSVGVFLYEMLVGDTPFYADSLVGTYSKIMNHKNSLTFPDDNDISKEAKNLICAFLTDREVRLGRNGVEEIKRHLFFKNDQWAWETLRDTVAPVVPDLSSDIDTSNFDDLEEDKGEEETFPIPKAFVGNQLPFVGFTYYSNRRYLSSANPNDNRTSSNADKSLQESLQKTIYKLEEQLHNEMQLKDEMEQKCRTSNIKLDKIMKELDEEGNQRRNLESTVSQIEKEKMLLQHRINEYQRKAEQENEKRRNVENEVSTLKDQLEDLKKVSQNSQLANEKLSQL

activity in the ROCK kinase assay: not active
Structure (SMILES): CC1=C(C(=O)Nc2cc3cn[nH]c3cc2F)C(c2ccc(Cl)cc2F)N=C(c2ccnc(Cl)c2)N1C (stereo not shown) [Example 98, 4-(4-chloro-2-fluorophenyl)-2-(2-chloro-4-pyridinyl)-N-(6-fluoro-1H-indazol-5-yl)-1,6-dimethyl-1,4-dihydro-5-pyrimidinecarboxamide]
